Results: publication PMC6006850, “Assessment of new HDAC inhibitors for immunotherapy of malignant pleural mesothelioma” (Clinical Epigenetics, 2018)
Like-named read-outs stand apart in the source and are kept apart here.

Experiments:
PD-L1 (B7-H1) mRNA = assay: PD-L1 mRNA expression in MPM cells by real time PCR; conditions: for PD-L1 mRNA: HDACi 48 h combined with decitabine 500 nM (72 h pretreatment); for PD-L1 expression: two additional MPM cell lines (Meso34 and Meso45), molecule alone
Procedure: (§4) All real-time PCR reactions were performed using the Mx3005P QPCR Systems (Stratagen Products, Agilent Technologies), and the amplifications were done using the SYBR Green PCR Master Mix SAB bioscience (Qiagen) mixed with Oligonucleotides QuantiTect Primer (Qiagen). The thermal cycling conditions were composed of 1 cycle at 95 °C for 10 min, 40 cycles at 95 °C for 30 s and 60 °C for 1 min, and 1 cycle at 95 °C for 1 min, 60 °C for 30 s, and 95 °C for 30 s. The experiments were carried out in duplicate for each data point. All the qPCR data were analyzed by MxPro software.

[1] = cited from earlier work
CD8 T-cell clones = assay: Cell viability (CellTiter-Glo) of CD8 T-cell clones treated with HDACi, with or without decitabine; type: cell-based, human; set-up: AUC (Area Under the Curve) T-CD8 clones - 5-aza: unit not given beside the values; conditions: for AUC (Area Under the Curve) T-CD8 clones + 5-aza 500nM / AUC (Area Under the Curve) T-CD8 clones - 5-aza: viability dose-response curve; for AUC (Area Under the Curve) T-CD8 clones + 5-aza 500nM: decitabine 500 nM pretreatment; for AUC (Area Under the Curve) T-CD8 clones - 5-aza: no decitabine; for IC50: Homo sapiens, T-cell
lymphocytes = assay: Cell viability (CellTiter-Glo) of lymphocytes treated with HDACi, with or without decitabine; set-up: hematological toxicity: dose or concentration left out as unconfirmed; AUC (Area Under the Curve) Lymphocytes - 5-aza: unit not given beside the values; conditions: for AUC (Area Under the Curve) Lymphocytes + 5-aza 500nM / AUC (Area Under the Curve) Lymphocytes - 5-aza: viability dose-response curve; for AUC (Area Under the Curve) Lymphocytes + 5-aza 500nM: decitabine 500 nM pretreatment; for AUC (Area Under the Curve) Lymphocytes - 5-aza: no decitabine
[2] = system: natural killer cells (NK) (CD56+, CD16+); assay: Flow cytometry of natural killer cell proportion in treated lymphocytes; type: cell-based, human
Procedure: (§1) For flow cytometry experiments, lymphocytes were seeded at 4 × 10^5cells/well in a flat-bottomed 96-well plate in 180 μl RPMI 1640 8% HS. […]
(§2) The day of analysis, cells were stained in a conical-bottomed 96-well plate at 10^5 cells/well. The plate was centrifuged at 800×g for 1 min, and the pellets were washed using 200 μl/well of PBS containing BSA 0.1% (wash buffer). Antibodies (see Additional file 2: Table S2) were used at a dilution of 1/30 in the wash buffer, and then, the plate was incubated at 4 °C for 30 min. Later, two washings were performed using the wash buffer prior to flow cytometry analysis. All flow cytometry data were acquired with FACScalibur (BD biosciences) using the CellQuest software (BD Biosciences) and analyzed by FlowJo software.
(§3) The aim of our strategy is to induce an anti-tumor immune response to cure malignant pleural mesothelioma by using combinations of epigenetic drugs including HDACi. Therefore, it was necessary to study the effect of these HDACi on sub-populations of lymphocytes implicated in this immune response. […] Toxicity of the compounds was tested on natural killer cells (NK) (CD56+, CD16+), on regulatory T-cells (Treg) (CD4+, CD25+, CD127 low and Foxp3+), on CD4 and CD8 naïve T-cells (CD4+, CCR7+ and CD45RA+, and CD8+, CCR7+ and CD45RA+, respectively), and on CD4 and CD8 memory T cells (CD4+ and CD45RO+, and CD8+ and CD45RO+, respectively).

MDA5 mRNA = MDA5 mRNA expression in MPM cells by real time PCR; conditions: decitabine alone
Procedure: as §4

RIG-1 mRNA = RIG-1 mRNA expression in MPM cells by real time PCR; conditions: decitabine alone
Procedure: as §4

[3] = system: regulatory T-cells (Treg) (CD4+, CD25+, CD127 low and Foxp3+); assay: Flow cytometry of regulatory T cell proportion in treated lymphocytes; type: cell-based, human; conditions: decitabine alone 500 nM, 72 h
Procedure: as §1, §2, §3

O=C(CCCCCCC(=O)Nc1ccccc1)NO [SAHA, Suberoylanilide hydroxamic acid]
PD-L1 mRNA (PD-L1 (B7-H1) mRNA; Meso96): significant increase
PD-L1 expression (PD-L1 (B7-H1) mRNA): increased
clinical doses measured in blood from patients [1]: 1 to 4 µM
blood concentrations reach in clinic ([1]; patients, clinical trials): approximately 1 μM
AUC (Area Under the Curve) T-CD8 clones + 5-aza 500nM (CD8 T-cell clones): 35.07
AUC (Area Under the Curve) T-CD8 clones - 5-aza (CD8 T-cell clones): 112.2
toxicity for lymphocytes and CD8 T-cells (lymphocytes; at clinical doses measured in blood from patients (approximately 1 to 4 μM)): toxic
cells survived (lymphocytes; lymphocytes, highest dose of compound, in the presence or not of decitabine): approximately 40%
AUC (Area Under the Curve) Lymphocytes + 5-aza 500nM (lymphocytes): 183.9
AUC (Area Under the Curve) Lymphocytes - 5-aza (lymphocytes): 200.5

CCCC(CCC)C(=O)O [VPA, valproic acid]
PD-L1 mRNA (PD-L1 (B7-H1) mRNA; Meso96): significant increase
PD-L1 expression (PD-L1 (B7-H1) mRNA): increased
blood concentrations observed during treatments ([1]; patients, clinical trials): approximately 1 mM
IC50 (CD8 T-cell clones; read-out: IC50 T-CD8 clones + Decitabine 500 nM, decitabine 500 nM 72 h pretreatment, then 48 h HDACi): 20 µM
IC50 (CD8 T-cell clones; 48 h HDACi, no decitabine pretreatment, read-out: IC50 T-CD8 clones − Decitabine): 3800 ± 60 µM
AUC (Area Under the Curve) T-CD8 clones + 5-aza 500nM (CD8 T-cell clones): 60.52
AUC (Area Under the Curve) T-CD8 clones - 5-aza (CD8 T-cell clones): 216.8
decrease of the proportion of NK cells ([2]; in comparison to untreated lymphocytes, 48 h, VPA 5 mM, SAHA 1 μM, ODB 32 μM, NODB 8 μM, ODH 4 μM, NODH 50 nM): more than 50%
hematological toxicity (lymphocytes; (blood concentration observed during treatments)): weak hematological toxicity
AUC (Area Under the Curve) Lymphocytes + 5-aza 500nM (lymphocytes): 208.5
AUC (Area Under the Curve) Lymphocytes - 5-aza (lymphocytes): 248.3

Nc1ncn([C@H]2C[C@H](O)[C@@H](CO)O2)c(=O)n1 [decitabine, 5-Aza-2′-deoxycytidine]
mRNA expression of PD-L1 (PD-L1 (B7-H1) mRNA; Meso96, decitabine alone 500 nM): did not affect
PD-L1 expression (PD-L1 (B7-H1) mRNA): increased
MDA5 mRNA expression (MDA5 mRNA; Meso34): increased significantly
MDA5 mRNA expression (MDA5 mRNA; Meso45): increased significantly
MDA5 mRNA expression (MDA5 mRNA; Meso96): not
effect on NK proportion ([2]; decitabine alone 500 nM, 72 h): reduced moderately
RIG-1 mRNA expression (RIG-1 mRNA; Meso34): increased significantly
RIG-1 mRNA expression (RIG-1 mRNA; Meso45): increased significantly
RIG-1 mRNA expression (RIG-1 mRNA; Meso96): not
effect on Treg proportion [3]: reduced moderately
